# Laboratory results from PMC10115881, “Disrupting the α-synuclein-ESCRT interaction with a peptide inhibitor mitigates neurodegeneration in preclinical models of Parkinson’s disease” (Nature Communications, 2023).
# No end group written: not given here. *: point of attachment. FITC = O=C1OC2(c3ccc(O)cc3Oc3cc(O)ccc32)c2ccc(NC(=S)*)cc21
# T1: purified VPS4B (Vacuolar Protein Sorting 4) (UniProt O75351 1-444)
# T1 chain: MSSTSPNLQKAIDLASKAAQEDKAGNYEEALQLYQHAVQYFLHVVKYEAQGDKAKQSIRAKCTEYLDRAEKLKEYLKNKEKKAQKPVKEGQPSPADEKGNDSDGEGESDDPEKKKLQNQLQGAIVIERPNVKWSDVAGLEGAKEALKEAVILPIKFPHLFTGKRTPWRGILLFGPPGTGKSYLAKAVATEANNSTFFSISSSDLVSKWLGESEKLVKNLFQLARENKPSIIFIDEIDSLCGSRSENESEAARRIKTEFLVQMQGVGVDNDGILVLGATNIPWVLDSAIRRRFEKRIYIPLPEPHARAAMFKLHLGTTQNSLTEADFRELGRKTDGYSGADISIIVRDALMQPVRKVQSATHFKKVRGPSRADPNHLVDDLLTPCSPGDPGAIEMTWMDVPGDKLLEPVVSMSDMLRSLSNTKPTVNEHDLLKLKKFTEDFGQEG
# T2: purified VPS4B (Vacuolar Protein Sorting 4) (UniProt O75351 1-444)
# T2 construct: VPS4B expressed as a His-tagged Sumo construct in a pRSet B vector; The results speak of 'VPS4'; VPS4B is the only VPS4 protein whose purification is described; source: E. coli Overexpress C41, purified (Ni-NTA)
# T2 sequence (looked up): T1 chain
# B1: FITC-labeled a-syn peptide, amino acids 103-114 (NEEGAPQEGILE) (peptide)
# peptide: {FITC}-NEEGAPQEGILE
# notes: α-synuclein amino acids 103-114; also called a-syn peptide fragment; source: synthetic peptide (LifeTein)
# B2: FITC-labeled PDpep1.3 peptide (peptide)
# peptide: {FITC}-DEEIERQLKALG
# notes: stretch of the C-terminal region (MIM) of CHMP2B; also called FITC-PDpep1.3; source: synthetic peptide (LifeTein)
# Key:
# [1] = test system: LC3-HiBiT reporter in HEK293 cells; assay: Autophagy flux assay (LC3-HiBiT reporter), HEK293 cells; type: cell-based, human
# Text: Autophagic flux was quantitatively measured with the Autophagy LC3-HiBiT Reporter Assay System which was purchased from Promega (GA1040) and used according to the manufacturer’s instructions. When autophagy is induced, the cytosolic LC3-I fusion protein is recruited to phagophores where it becomes conjugated to phosphatidylethanolamine to form LC3-II. Upon phagophore membrane elongation and closure to form the mature autophagosome, a significant fraction of tethered LC3 protein becomes captured within the lumen together with various cargo. Subsequently, autophagosomes fuse with lysosomes to form autolysosomes, leading to the ultimate degradation of both cargo and the captured LC3 reporter protein. Thus, changes in the total level of the LC3 reporter protein can be used to monitor changes in autophagic flux. HEK293 cells (ATCC, CRL-1573) stably expressing the LC3-HiBiT reporter were trypsinized from subconfluent culture and seeded in a 10 cm plate at a density of 3.0 × 10^6 per plate. Cells were incubated overnight at 37 °C in 5% CO2. Cells were transfected with FLAG-peptide plasmids in combination with pcDNA or A53T a-syn plasmids. After 24 h, cells were trypsinized and seeded in triplicate in a white flat-bottomed 96-well plate at a density of 20,000 cells per well. Cell medium was replaced the next day with fresh medium containing DMSO, Rapamycin, or Bafilomycin A1 and incubated for 24 h at 37 °C with 5% CO2. 80 µL of Working prewarmed Nano-Glo® HiBiT lytic buffer containing HiBiT substrate and LgBit protein (N3030) were added to each well containing 20 µL of cell medium and left to incubate on a rocker for 10 min. Samples were read using a luminometer with a 480 nm filter with measured RLU being directly proportional to HiBiT-conjugated LC3.
# [2] = test system: A53T a-syn expressing HEK293 cells; assay: Cell Titer-Glo cell viability, A53T a-syn expressing cells; type: cell-based, human; conditions: A53T a-syn cells
# Procedure: Oligonucleotides encoding the specific peptides were synthesized and individually cloned into the pLJM1 nGFP lentiviral vector. HEK293T cells were infected with individual constructs, and cell viability was assessed using Cell Titer-Glo luminescent assay (Promega) at 72 h post infection.
# Cells were trypsinized from subconfluent cultures as described earlier, suspended in culture media, and then seeded into triplicate wells of a 96-well plate (100 µl/well) at a density of 1.5 × 10^4 cells per well with standard culture conditions of 5% CO2 at 37 °C. Cells were infected with lentivirus expressing peptide at a MOI of 5 for 72 h or transfected with plasmid for 72 h. Cell Titer-Glo reagent was added to each well (30 µL), according to the manufacturer’s protocol and […].
# A53T a-syn = A53T a-syn protein level in HEK293 cells by immunoblot; type: cell-based, human
# Procedure: Infected or transfected cells were scraped from six-well dishes and lysed with lysis buffer (50 mM Tris-HCl pH 7.4, 1% Nonidet P-40, 150 mM NaCl, 1 mM EDTA, 1× protease inhibitor mixture (Sigma)) for 30 min at 4 °C. The insoluble pellet was removed following a 10,000 rpm spin for 5 min at 4 °C. Lysates were analyzed by SDS-PAGE/immunoblot using 4–20% Mini-PROTEAN Tris-glycine gels (Bio-Rad), transferred to polyvinylidene fluoride (PVDF) membranes, and blocked in 5% milk containing PBS-Tween-20 (0.1%) for 1 h. PVDF membranes were then incubated with specified primary antibodies followed by incubation with horseradish peroxidase-conjugated secondary antibodies (anti-mouse HRP-linked, Cell Signaling, catalog #7076, 1:5000; anti-rabbit HRP-linked, Cell Signaling, catalog #7074, 1:5000) and detected using enhanced chemiluminescence (GE Healthcare). Anti-a-syn antibody (clone 42) was obtained from BD Biosciences (catalog #610787, 1:1000). Anti-LAMP1 antibody was obtained from Abcam (catalog #ab24170, 1:500). Anti-beta-actin antibody was obtained from Cell Signaling (13E5) (catalog #4970, 1:1000). Anti-CD63 antibody was obtained from R&D Systems (catalog #MAB50482-SP, 1:1000).
# VPS4 = conditions: motif-domain interaction; read-out: CHMP2B-VPS4 interaction affinity; cited from earlier work
# Text: CHMP2B has been reported to bind to Vacuolar Protein Sorting 4 (VPS4), an AAA-type adenosine triphosphatase. This interaction is mediated by the C-terminal MIM on CHMP2B and a Microtubule Interacting and Trafficking (MIT) domain on VPS4. […] However, we also noted that many CHMP proteins can self-interact and have been reported to multimerize, which may contribute to their function. In particular, CHMP2B can self-interact[30] and is thought to polymerize at the budding of membranes during endosome formation. ...
# [3] = test system: PDE dopaminergic neurons of A30P a-syn C. elegans; assay: C. elegans PDE neurite length assay; type: in vivo
# Procedure: C. elegans strains were grown and maintained under standard conditions at 22–23 °C [66]. BZ555 [dat-1p::gfp] was obtained from the C. elegans Genetics Center (CGC; University of Minnesota, St Paul, MN, USA), TWH1 ([dat-1p::a-syn(A30P), ges-1p::DsRed]; [dat-1p::gfp]) was obtained by crossing BZ555 with A30P a-syn transgenic animals (kindly provided by Dr. Takeshi Iwatsubo, University of Tokyo)[67].
# The peptide construct (pPD97.78_osm-6p_TagRFP_wpeptide) was obtained by subcloning the following fragments into NheI and SpeI sites of pPD97.78 (A. Fire): NheI-AgeI […] fragment (2.4 kb) obtained by PCR using primer set 5′-[…]-3′ and 5′-[…]-3′ and N2 genomic DNA as a template, AgeI-EcoRI TagRFP fragment obtained by PCR using primer set 5′-gttgaccggt[…]-3′ and 5′-ggcagaattcga[…]-3′, EcoRI-SmaI peptide ([…]) fragment digested from CMV_[…]_worm, SmaI-SpeI unc-54 3′-UTR fragment digested from pPD95.75 (Fire vector). The TagRFP control construct was obtained by replacing the EcoRI-SmaI peptide fragment and SmaI-SpeI unc-54 3′-UTR fragment from pPD97.78_osm-6p_TagRFP_wpeptide, to EcoRI- SpeI unc-54 3′-UTR fragment digested from pPD95.75[68].
# Each plasmid (40 ng/µl) was injected with a co-injection marker, sur-5p::mCherry into TWH1. The animals carrying the extrachromosomal arrays were transferred to new plates, and their progenies were analyzed at the adult stage under a widefield microscope (Zeiss AxioObserver). Pearson Chi-square test was used for statistical analysis.
# [4] = target: T3, purified recombinant CHMP2B (UniProt Q9UQN3 1-213); assay: fluorescence polarisation; FITC-peptide constant at 50 nM, CHMP2B serially diluted 1:1 from 30 μM; 50 mM Na phosphate pH 5.5 or 20 mM Na acetate pH 5.5, 0.5 mM TCEP, 0.005% Triton-X-100; 30 min at room temperature; conditions: both partners purified
# T3 construct: CHMP2B from the vector pET-DEST42 CHMP2B; eluted as a 26 kDa monomer; Removal of tags is not described; source: E. coli Overexpress C41, inclusion bodies, purified (Ni-NTA in guanidine HCl, dialysis, SEC)
# [5] = target: T1, purified VPS4B (Vacuolar Protein …); assay: FP
# [6] = target: T2, purified VPS4B (Vacuolar Protein …); assay: not stated; 'our affinity measurements' of PDpep1.3 with VPS4 (Fig. S1G); conditions: both partners purified
# T3 sequence (Q9UQN3 whole entry): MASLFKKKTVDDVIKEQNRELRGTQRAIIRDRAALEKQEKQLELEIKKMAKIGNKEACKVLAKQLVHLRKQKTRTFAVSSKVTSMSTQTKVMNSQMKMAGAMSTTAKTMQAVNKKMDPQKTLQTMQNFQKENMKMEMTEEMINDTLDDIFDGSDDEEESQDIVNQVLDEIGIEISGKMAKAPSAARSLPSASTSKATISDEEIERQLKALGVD
molecule,measurement,setting,value
CO[C@H]1C[C@@H]2CC[C@@H](C)[C@@](O)(O2)C(=O)C(=O)N2CCCC[C@H]2C(=O)O[C@H]([C@H](C)C[C@@H]2CC[C@@H](O)[C@H](OC)C2)CC(=O)[C@H](C)/C=C(\C)[C@@H](O)[C@@H](OC)C(=O)[C@H](C)C[C@H](C)/C=C/C=C/C=C/1C [rapamycin],Effect on autophagic flux,[1],decreased LC3 reporter levels and luminescent signal
CO/C1=C\C(C)=C\[C@@H](C)[C@@H](O)[C@@H](C)C/C(C)=C/C=C/[C@H](OC)[C@@H]([C@@H](C)[C@@H](O)[C@H](C)[C@@]2(O)C[C@@H](O)[C@H](C)[C@@H](C(C)C)O2)OC1=O [bafilomycin A1],Effect on autophagic flux,[1],increases LC3 reporter levels and luminescent signal
"CHMP2B: CHarged Multivesicular body Protein 2B, full-length",Effect on cell survival/viability,[2],rescues a-syn cytotoxicity
same,Effect on A53T a-syn protein level,A53T a-syn,reduces a-syn levels
same,Kd,VPS4,178 µM
FEELEAQLARLR [TagRFP::peptide],Effect on PDE neurite shortening,[3]; A30P human a-syn,partially rescued
same,Proportion displaying Long PDE neurite length,"[3]; a-Syn (A30P), Marker +, adult",36.95%
same,Proportion displaying Medium PDE neurite length,"[3]; a-Syn (A30P), Marker +, adult",48.43%
same,Proportion displaying Short PDE neurite length,"[3]; a-Syn (A30P), Marker +, adult",14.62%
B1,Kd,[4],640 nM
B2,Kd,[4],1800 nM
same,Kd,[5],~200 µM
same,Kd,[6],> 100 µM
